According to patent US20220396593A1, “SYNTHESIS AND CHARACTERIZATION OF VANADIUM COMPLEXES” (priority 2021, published 2022):

Assays:
[1] = Solubility of vanadium complex solid in water / PBS buffer
[2] = Stability of vanadium complexes in water and PBS buffer (NMR, pH over time); conditions: pH adjusted to 7.4 where needed
[3] = system: oncolytic RNA viruses including vesicular stomatitis virus (VSV) and Measles; conditions: cited from earlier work

Compound | Stability in solution and need for pH adjustment [2] | Effect on replication and spread of oncolytic RNA viruses [3] | other results
Na3[(V^IVO)2(C6H4O7)(C6H5O7)] [CDOS155] | limited at pH 7.4 but similar in water or PBS but required continuous pH adjustment |  | Solubility ([1]; in water): soluble in water; pH up to which the solid dissolved ([1]; solid mixed with PBS buffer): ≤ 5
[O]=[V]([O-])([O-])[O-] [orthovanadate] |  | improve the replication and spread of oncolytic RNA viruses | 
O=S(=O)([O-])[O-].[O]=[V+2] [vanadyl sulfate] |  | improve the replication and spread of oncolytic RNA viruses | 
Cc1occc(=O)c1[O-].Cc1occc(=O)c1[O-].[O]=[V+2] [bismaltolatoxovanadate (BMOV), bismaltolatoxovanadate] |  | improve the replication and spread of oncolytic RNA viruses | 
K3[(VO2)2(C6H6O7)(C6H5O7)]×3 H2O [CDOS150] | the solutions did require initial pH adjustment |  | pH up to which the solid dissolved ([1]; solid dissolved into water and phosphate buffered saline (PBS) buffer): ≤ 5
